Tests used:
[1] = biological target: GDP-bound NRAS wild-type protein (Homo sapiens, UniProt P01111); experiment: Binding to NRAS by surface plasmon resonance (SPR), Single Cycle Kinetics; details: KD ratio, GDP-bound NRAS wild-type vs GDP-bound KRAS wild-type, SPR
[2] = biological target: GDP-bound HRAS wild-type protein (Homo sapiens, UniProt P01112); experiment: Binding to HRAS by surface plasmon resonance (SPR), Single Cycle Kinetics; details: KD ratio, GDP-bound HRAS wild-type vs GDP-bound KRAS wild-type, SPR
Sequence of GDP-bound HRAS wild-type protein (P01112 whole entry): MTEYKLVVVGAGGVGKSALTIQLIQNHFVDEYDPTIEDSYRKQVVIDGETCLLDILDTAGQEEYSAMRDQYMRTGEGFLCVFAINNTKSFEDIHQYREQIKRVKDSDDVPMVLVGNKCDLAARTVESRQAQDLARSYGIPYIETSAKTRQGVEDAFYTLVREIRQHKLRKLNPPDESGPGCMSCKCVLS

Sequence of GDP-bound NRAS wild-type protein (P01111 whole entry): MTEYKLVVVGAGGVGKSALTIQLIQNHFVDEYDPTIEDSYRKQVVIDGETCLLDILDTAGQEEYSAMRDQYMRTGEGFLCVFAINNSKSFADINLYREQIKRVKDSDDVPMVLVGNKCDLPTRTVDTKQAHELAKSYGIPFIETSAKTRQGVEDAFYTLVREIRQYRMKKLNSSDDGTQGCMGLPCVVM

Row | Structure (SMILES) | NRAS/KRAS (ratio of KD value with respect to NRAS to KD value with respect to KRAS) [1] | HRAS/KRAS (ratio of KD value with respect to HRAS to KD value with respect to KRAS) [2]
1 | CCO[C@@H]1C[C@H]2C(=O)NC3(CCC3)C(=O)N(C)[C@@H](C(C)(C)C)C(=O)N(C)[C@H](C(=O)N3CCOCC3)CC(=O)N(C)[C@@H](CC(C)C)C(=O)N[C@@H]([C@@H](C)CC)C(=O)N(C)CC(=O)N(C)[C@H]3CCCCN(C3=O)[C@@H](Cc3ccc(C(F)(F)F)cc3)C(=O)N(C)CC(=O)N[C@@H](CCc3cc(F)c(C(F)(F)F)c(F)c3)C(=O)N2C1 [PP0814] | B (a compound having 3 or more and less than 10 is denoted as B) | B (a compound having 3 or more and less than 10 is denoted as B)
2 | CCO[C@@H]1C[C@H]2C(=O)NC3(CCC3)C(=O)N(C)[C@@H](C3CCCC3)C(=O)N(C)[C@H](C(=O)N3CCOCC3)CC(=O)N(C)[C@@H](CC(C)C)C(=O)N[C@@H]([C@H](C)CC)C(=O)N(C)CC(=O)N(C)[C@H]3CCCCCN(C3=O)[C@@H](Cc3ccc(C(F)(F)F)cc3)C(=O)N(C)CC(=O)N[C@@H](CCc3cc(F)c(C(F)(F)F)c(F)c3)C(=O)N2C1 [PP0815] | B (a compound having 3 or more and less than 10 is denoted as B) | B (a compound having 3 or more and less than 10 is denoted as B)
3 | CCO[C@@H]1C[C@H]2C(=O)NC3(CCC3)C(=O)N(C)[C@@H](C3CCCC3)C(=O)N(C)[C@H](C(=O)N3CCOCC3)CC(=O)N(C)[C@@H](CC(C)C)C(=O)N[C@@H](C3CC(F)(F)C3)C(=O)N(C)CC(=O)N(C)[C@H]3CCCCCN(C3=O)[C@@H](Cc3ccc(C(F)(F)F)cc3)C(=O)N(C)CC(=O)N[C@@H](CCc3cc(F)c(C(F)(F)F)c(F)c3)C(=O)N2C1 [PP0816] | A (a compound having 10 or more and less than 20 is denoted as A) | B (a compound having 3 or more and less than 10 is denoted as B)
4 | CC[C@H](C)[C@@H]1NC(=O)[C@H](CC(C)C)N(C)C(=O)C[C@@H](C(=O)N2CCOCC2)N(C)C(=O)[C@H](C2CCCC2)N(C)C(=O)C2(CCC2)NC(=O)[C@]2(C)CCCN2C(=O)[C@H](CCc2cc(F)c(C(F)(F)F)c(F)c2)NC(=O)CN(C)C(=O)[C@H](Cc2ccc(C(F)(F)F)cc2)N2CCCCC[C@@H](C2=O)N(C)C(=O)CN(C)C1=O [PP0817] | A (a compound having 10 or more and less than 20 is denoted as A) | B (a compound having 3 or more and less than 10 is denoted as B)
5 | CC[C@H](C)[C@@H]1NC(=O)[C@H](CC(C)C)N(C)C(=O)C[C@@H](C(=O)N2CCOCC2)N(C)C(=O)[C@H](C2CCCC2)N(C)C(=O)C2(CCC2)NC(=O)[C@@H]2C[C@@H](C(F)(F)F)CN2C(=O)[C@H](CCc2cc(F)c(C(F)(F)F)c(F)c2)NC(=O)CN(C)C(=O)[C@H](Cc2ccc(C(F)(F)F)cc2)N2CCCCC[C@@H](C2=O)N(C)C(=O)CN(C)C1=O [PP0818] | B (a compound having 3 or more and less than 10 is denoted as B) | B (a compound having 3 or more and less than 10 is denoted as B)
6 | CC[C@H](C)[C@@H]1NC(=O)[C@H](CC(C)C)N(C)C(=O)C[C@@H](C(=O)N2CCOCC2)N(C)C(=O)[C@H](C2CCCC2)N(C)C(=O)C2(CCC2)NC(=O)[C@@H]2[C@H]3C[C@H]3CN2C(=O)[C@H](CCc2cc(F)c(C(F)(F)F)c(F)c2)NC(=O)CN(C)C(=O)[C@H](Cc2ccc(C(F)(F)F)cc2)N2CCCCC[C@@H](C2=O)N(C)C(=O)CN(C)C1=O [PP0819] | A (a compound having 10 or more and less than 20 is denoted as A) | B (a compound having 3 or more and less than 10 is denoted as B)
7 | CCO[C@@H]1C[C@H]2C(=O)NC3(CCC3)C(=O)N(C)[C@@H](C(CC)CC)C(=O)N(C)[C@H](C(=O)N3CCOCC3)CC(=O)N(C)[C@@H](CC(C)C)C(=O)N[C@@H]([C@@H](C)CC)C(=O)N(C)CC(=O)N(C)[C@H]3CCCCCN(C3=O)[C@@H](Cc3ccc(C(F)(F)F)cc3)C(=O)N(C)CC(=O)N[C@@H](CCc3cc(F)c(C(F)(F)F)c(F)c3)C(=O)N2C1 [PP0820] | A (a compound having 10 or more and less than 20 is denoted as A) | B (a compound having 3 or more and less than 10 is denoted as B)
8 | CCO[C@@H]1C[C@H]2C(=O)NC3(CCC3)C(=O)N(C)[C@@H]([C@H](C)CC)C(=O)N(C)[C@H](C(=O)N3CCOCC3)CC(=O)N(C)[C@@H](CC(C)C)C(=O)N[C@@H]([C@@H](C)CC)C(=O)N(C)CC(=O)N(C)[C@H]3CCCCCN(C3=O)[C@@H](Cc3ccc(C(F)(F)F)cc3)C(=O)N(C)CC(=O)N[C@@H](CCc3cc(F)c(C(F)(F)F)c(F)c3)C(=O)N2C1 [PP0821] | A (a compound having 10 or more and less than 20 is denoted as A) | B (a compound having 3 or more and less than 10 is denoted as B)
9 | CCO[C@@H]1C[C@H]2C(=O)NC3(CCC3)C(=O)N(C)[C@@H](CC(F)F)C(=O)N(C)[C@H](C(=O)N3CCOCC3)CC(=O)N(C)[C@@H](CC(C)C)C(=O)N[C@@H]([C@@H](C)CC)C(=O)N(C)CC(=O)N(C)[C@H]3CCCCCN(C3=O)[C@@H](Cc3ccc(C(F)(F)F)cc3)C(=O)N(C)CC(=O)N[C@@H](CCc3cc(F)c(C(F)(F)F)c(F)c3)C(=O)N2C1 [PP0822] | B (a compound having 3 or more and less than 10 is denoted as B) | B (a compound having 3 or more and less than 10 is denoted as B)
10 | CCO[C@@H]1C[C@H]2C(=O)NC3(CCC3)C(=O)N(C)[C@@H](C(C)(C)C)C(=O)N(C)[C@H](C(=O)N3CCOCC3)CC(=O)N(C)[C@@H](CC(C)C)C(=O)N[C@@H]([C@@H](C)CC)C(=O)N(C)CC(=O)N(C)[C@H]3CCCCCN(C3=O)[C@@H](Cc3ccc(C(F)(F)F)cc3)C(=O)N(C)CC(=O)N[C@@H](CCc3cc(F)c(C(F)(F)F)c(F)c3)C(=O)N2C1 [PP0823] | A (a compound having 10 or more and less than 20 is denoted as A) | B (a compound having 3 or more and less than 10 is denoted as B)
11 | CCO[C@@H]1C[C@H]2C(=O)NC3(CCC3)C(=O)N(C)[C@@H](C3CCCC3)C(=O)N(C)[C@H](C(=O)N(C)C)CC(=O)N(C)[C@@H](CC)C(=O)N[C@@H]([C@@H](C)CC)C(=O)N(C)CC(=O)N(C)[C@H]3C/C=C\CCN(C3=O)[C@@H](Cc3ccc(C(F)(F)F)cc3)C(=O)N(C)CC(=O)N[C@@H](CCc3cc(F)c(C(F)(F)F)c(F)c3)C(=O)N2C1 [PP0824] | A (a compound having 10 or more and less than 20 is denoted as A) | A (a compound having 10 or more and less than 20 is denoted as A)
12 | CCO[C@@H]1C[C@H]2C(=O)NC3(CCC3)C(=O)N(C)[C@@H](C3CCCC3)C(=O)N(C)[C@H](C(=O)N3CCOCC3)CC(=O)N(C)[C@@H](CC(C)C)C(=O)N[C@@H]([C@@H](C)CC)C(=O)N(C)CC(=O)N(C)[C@H]3C/C=C\CCN(C3=O)[C@@H](Cc3ccc(C(F)(F)F)cc3)C(=O)N(C)CC(=O)N[C@@H](CCc3ccc(C(F)(F)F)c(Cl)c3)C(=O)N2C1 [PP0825] | A (a compound having 10 or more and less than 20 is denoted as A) | A (a compound having 10 or more and less than 20 is denoted as A)
13 | CCO[C@@H]1C[C@H]2C(=O)NC3(CCC3)C(=O)N(C)[C@@H](C3CCCC3)C(=O)N(C)[C@H](C(=O)N3CCOCC3)CC(=O)N(C)[C@@H](CC(C)C)C(=O)N[C@@H]([C@@H](C)CC)C(=O)N(C)CC(=O)N(C)[C@H]3CC=C(C)CN(C3=O)[C@@H](Cc3ccc(C(F)(F)F)cc3)C(=O)N(C)CC(=O)N[C@@H](CCc3cc(F)c(C(F)(F)F)c(F)c3)C(=O)N2C1 [PP0826] | C (A compound having a KD ratio of 0.1 or more and less than 3 is denoted as C) | B (a compound having 3 or more and less than 10 is denoted as B)
14 | CCO[C@@H]1C[C@H]2C(=O)NC3(CCC3)C(=O)N(C)[C@@H](C3CCCC3)C(=O)N(C)[C@H](C(=O)N(C)C)CC(=O)N(C)[C@@H](CC)C(=O)N[C@@H]([C@@H](C)CC)C(=O)N(C)CC(=O)N(C)[C@H]3CC=C(C)CN(C3=O)[C@@H](Cc3ccc(C(F)(F)F)cc3)C(=O)N(C)CC(=O)N[C@@H](CCc3cc(F)c(C(F)(F)F)c(F)c3)C(=O)N2C1 [PP0827] | C (A compound having a KD ratio of 0.1 or more and less than 3 is denoted as C) | C (A compound having a KD ratio of 0.1 or more and less than 3 is denoted as C)
15 | CCO[C@@H]1C[C@H]2C(=O)NC3(CC(F)(F)C3)C(=O)N(C)[C@@H](C3CCCC3)C(=O)N(C)[C@H](C(=O)N3CCOCC3)CC(=O)N(C)[C@@H](CC(C)C)C(=O)N[C@@H]([C@@H](C)CC)C(=O)N(C)CC(=O)N(C)[C@H]3CC=C(C)CN(C3=O)[C@@H](Cc3ccc(C(F)(F)F)cc3)C(=O)N(C)CC(=O)N[C@@H](CCc3cc(F)c(C(F)(F)F)c(F)c3)C(=O)N2C1 [PP0828] | C (A compound having a KD ratio of 0.1 or more and less than 3 is denoted as C) | C (A compound having a KD ratio of 0.1 or more and less than 3 is denoted as C)

From patent US20250230193A1, “CYCLIC COMPOUND HAVING SELECTIVE KRAS INHIBITORY EFFECT ON HRAS AND NRAS” (CHUGAI SEIYAKU KABUSHIKI KAISHA, priority 2022, published 2025)
